Results on 53 compounds are retold here after PubChem BioAssay AID1996.

Converted amounts (≈) assume the structure as drawn. A value given as a limit tells only on which side of the number the result lay.

For the data set the following is noted: buffer; pH 7.4; 200.0 µM.
What is called kinetic solubility is solubility judged after dilution from a stock solution rather than from solid. The compound `NS(=O)(=O)c1ccc(CNC(=O)c2ccncc2)cc1` showed a solubility (kinetic) greater than 43.7 µg/mL.

In the case of `c1ccc(-n2cccc2)c(N2CCCCC2)c1`, the kinetic solubility is less than 0.2 µg/mL.

As to `COc1ccccc1Oc1ncnc2sccc12`, the solubility (kinetic) is greater than 38.7 µg/mL.

`COCc1cc(=O)[nH]c(/N=C(\N)Nc2cccc(Cl)c2)n1` gave a kinetic solubility of 2.7 µg/mL (≈ 8.77 µM).

Turning to `Cc1cc(C(=O)COC(=O)c2ccco2)c(C)n1Cc1ccco1`, the kinetic solubility was determined as 2.5 µg/mL (≈ 7.64 µM).

As for `CC1CCN(CC(=O)Nc2ccc(Cl)cc2[N+](=O)[O-])CC1`, the solubility (kinetic) worked out at 0.9 µg/mL (≈ 2.89 µM).

Compound `Cc1ccc2c(c1)c1c(n2CC(O)CN2CCC(C)CC2)CCCC1` (stereo not drawn) showed a solubility (kinetic) of 44.4 µg/mL (≈ 130 µM).

`COC(=O)C(NC(=O)C(C)NC(=O)OCc1ccccc1)C(C)C` (stereo not drawn) came in with a kinetic solubility greater than 50.5 µg/mL.

The compound `Cc1cc(C)cc(NC(=O)CS(=O)(=O)c2ccccc2)c1` had a solubility (kinetic) of 44.2 µg/mL (≈ 146 µM).

As to `O=C(NCc1ccc(Cl)cc1)C1CCC(=O)N(C2CC2)C1` (stereo not drawn), the kinetic solubility is greater than 46 µg/mL.

Compound `Cc1ccc(C(=O)COc2ncnc3cc(Cl)ccc23)cc1` gave a solubility (kinetic) of 0.4 µg/mL (≈ 1.28 µM).

Compound `CC(=O)Cn1ncc(N2CCOCC2)c(Br)c1=O` showed a solubility (kinetic) greater than 47.4 µg/mL.

On to `CCN(C(=O)c1ccc(Br)cc1)c1ccccc1`, for which the solubility (kinetic) stood at 32.4 µg/mL (≈ 107 µM).

`Cc1cccc(NC(=O)c2cc(-c3ccccn3)nc3ccccc23)c1C` gave a kinetic solubility of 3.5 µg/mL (≈ 9.9 µM).

In turn, `Oc1ccc(NCc2cccc(OCc3ccccc3)c2)cc1` yielded a kinetic solubility of 38.1 µg/mL (≈ 125 µM).

In the case of `O=C(N/N=C/c1ccoc1)c1ccc(Cl)cc1Cl`, the kinetic solubility is greater than 42.5 µg/mL.

In the case of `Cc1sc(NC(=O)C2=COCCO2)c(C#N)c1C`, the solubility (kinetic) came out at 5.9 µg/mL (≈ 22.3 µM).

Compound `O=S(=O)(c1ccc(=S)[nH]c1)N1CCCC1` gave a kinetic solubility greater than 36.6 µg/mL.

With `CCN1C(=O)c2cccc3c(N)ccc(c23)C1=O`, the solubility (kinetic) is 7.5 µg/mL (≈ 31.2 µM).

Compound `COc1ccccc1C(=O)Nc1cc(-c2ccc(C)cc2)no1` showed a solubility (kinetic) of 0.5 µg/mL (≈ 1.62 µM).

`CC(C)c1ccc(C(=O)NN2CCOCC2)cc1` yielded a solubility (kinetic) greater than 37.2 µg/mL.

Compound `CCOC(=O)c1cnc(SC)nc1NCCOC` registered a solubility (kinetic) greater than 40.7 µg/mL.

`Cc1ccc(S(=O)(=O)NCCC(=O)NCc2cccnc2)cc1`: the solubility (kinetic) was greater than 50 µg/mL.

The compound `N#CCC(=O)Nc1ccc(C(=O)OCC(=O)N2CCN(C(=O)c3ccco3)CC2)cc1` registered a kinetic solubility greater than 63.7 µg/mL.

With `O=C(C1COc2ccccc2O1)N1CCN(c2ccc(C(F)(F)F)cn2)CC1` (stereo not drawn), the solubility (kinetic) worked out at 16.3 µg/mL (≈ 41.4 µM).

`CC1(c2ccc(Cl)cc2)NC(=O)N(CN2CCOCC2)C1=O` (stereo not drawn) yielded a kinetic solubility greater than 48.6 µg/mL.

`O=c1nc(SCc2cccc(C(F)(F)F)c2)nc2ccccn12` displayed a solubility (kinetic) of 7 µg/mL (≈ 20.8 µM).

In the case of `COc1ccc([N+](=O)[O-])cc1NC(=O)COC(=O)c1ccccn1`, the kinetic solubility was 20.9 µg/mL (≈ 63.1 µM).

`Cc1ccc(CN2CCCC(CO)(Cc3ccccc3C)C2)s1` (stereo not drawn) came in with a solubility (kinetic) of 48.6 µg/mL (≈ 147 µM).

Compound `CSc1ncc(C(=O)Nc2ccc(Br)cn2)c(C)n1` displayed a kinetic solubility of 47 µg/mL (≈ 139 µM).

Turning to `Cc1cc(C(=O)NCc2ccccc2F)c2ccccc2n1`, the kinetic solubility stood at 9.3 µg/mL (≈ 31.6 µM).

As for `CCOC(=O)Cn1ccc(NC(=O)COc2ccc(F)cc2)n1`, the solubility (kinetic) was greater than 48.2 µg/mL.

In turn, `CC1=C(C)C(=O)N(C(C)CCc2ccccc2)C1=O` (stereo not drawn) had a kinetic solubility of 4.4 µg/mL (≈ 17.1 µM).

Regarding `CNC(=S)N(CCc1c(C)[nH]c2ccc(Cl)cc12)Cc1cccnc1`, the kinetic solubility is 46.2 µg/mL (≈ 124 µM). This solubility kinetic is about 10-fold higher than that of the compound before.

In the case of `O=C(O)/C=C/C(=O)Nc1ccc(Cl)c(C(=O)O)c1`, the solubility (kinetic) was determined as 38 µg/mL (≈ 141 µM).

`O=c1cc(NC2CCCCC2)[nH]c(=O)[nH]1` returned a kinetic solubility of 13.1 µg/mL (≈ 62.6 µM).

In turn, `COc1ccc2cc(C(=O)N3CCN(c4ccccc4F)CC3)[nH]c2c1` showed a kinetic solubility of 1.9 µg/mL (≈ 5.38 µM). Compared with the last compound, the solubility kinetic is about 6.9-fold lower.

`Cc1ccc(CSc2nsc(C)c2C#N)cc1` registered a kinetic solubility of 3.3 µg/mL (≈ 12.7 µM).

In turn, `COc1ccc(NC(=O)C2CCC2)cc1S(=O)(=O)Nc1cc(C)ccc1Br` returned a solubility (kinetic) of 1.1 µg/mL (≈ 2.43 µM).

Take `Cc1cccc(NCc2ccc(O)c3ncccc23)c1C`: the solubility (kinetic) was greater than 41.8 µg/mL.

With `COc1cc(OC)cc(C(=O)NCc2ccc(-n3cccc3)cc2)c1`, the kinetic solubility stood at 0.4 µg/mL (≈ 1.19 µM).

`CN1C(=O)C(=O)/C(=C(/O)c2ccccc2)C1c1ccc([N+](=O)[O-])cc1` (stereo not drawn): the solubility (kinetic) was greater than 50.7 µg/mL.

`Cc1nc([N+](=O)[O-])c(C(=O)OCc2ccccc2)n1C` registered a kinetic solubility of 37.6 µg/mL (≈ 137 µM).

In turn, `CCN(CC)C(=O)Cn1cc(/C=C(\C#N)C(=O)NC2CC2)c2ccccc21` came in with a solubility (kinetic) of 43 µg/mL (≈ 118 µM).

Regarding `CN1CCN(C(=S)c2ccc(-c3cccc([N+](=O)[O-])c3)o2)CC1`, the kinetic solubility was determined as 43.3 µg/mL (≈ 131 µM).

With `CC(CCc1ccccc1)NC(=O)c1ccccc1C(=O)O` (stereo not drawn), the kinetic solubility was greater than 44.6 µg/mL.

Compound `COc1ccc(CC(=O)Nc2cccnc2)cc1` gave a kinetic solubility greater than 36.3 µg/mL.

`O=C(/C=C/c1cccnc1)c1cccc(O)c1` registered a kinetic solubility of 29.9 µg/mL (≈ 133 µM).

`CNC(=O)NC(=O)CN1C(=O)NC2(CCOc3ccccc32)C1=O` (stereo not drawn) registered a kinetic solubility greater than 49.8 µg/mL.

Compound `COC(=O)CSc1[nH]c2ccccc2c1[N+](=O)[O-]` returned a solubility (kinetic) greater than 39.9 µg/mL.

For `Cc1ccc(NC(=O)NCc2nc3ccccc3n2C)cc1`, the solubility (kinetic) amounted to 34.8 µg/mL (≈ 118 µM).

The compound `Cc1ccccc1OCCN(C#N)c1nc(N(C)C)nc(N(C)C)n1` showed a solubility (kinetic) of 0.4 µg/mL (≈ 1.17 µM).

`Cc1ccc(S(=O)(=O)c2nc(-c3ccccc3Cl)oc2N(C)C2CCN(C)CC2)cc1` had a kinetic solubility greater than 69 µg/mL.
